{"source": "patent US9226503B2", "about": "“Composition and method for attraction of emerald ash borer Agrilus planipennis fairmaire (coleoptera: buprestidae)” (Her Majesty the Queen in Right of Canada, as represented by …, priority 2011, dated 2016)", "key": {"A. planipennis antennae": {"system": "A. planipennis antennae", "test": "EAG dose-response study", "parameters": "species or system Agrilus planipennis", "details": "for EAG responsiveness of female antennae compared with male antennae: particularly at higher doses, P<0.0001; for EAG response of female antennae, (3Z)- vs (3E)-lactone: stimulus doses 0.01-100 μg, P=0.91", "from_the_text": "EAG analyses were made by methods and equipment generally described by Cossé & and Bartelt (2000). EAG connections were made by inserting a glass-pipette silver-grounding electrode into the back of an excised beetle head. A second glass-pipette silver-recording probe was placed in contact with the distal end of one antenna. Both pipettes were filled with Beadle-Ephrussi (Ephrussi and Beadle 1936) saline.\nFor the EAG-dose-response study, (3Z)- and (3E)-lactones were purified (99.9% purity by GC/MS) by high performance liquid chromatography (HPLC) using a Waters 515 pump, a Waters R401 refractive index detector, and a 25 cm by 0.46 cm i.d. silica column (Adsorbosphere Silica 5 μm, Alltech, Deerfield, Ill.), treated with silver nitrate as described by Heath and Sonnett (1980). Solvent was 8% ether in hexane. Ten micro liters of serially diluted solutions (methylene chloride) of synthetic (3Z)-lactone and (3E)-lactone were applied to filter paper strips (0.5 cm×5 cm, Whatman no. 1). The filter paper strips were placed in 14-cm-long Pasteur pipettes, hereafter referred to as stimulus cartridges, after 5 min at room temperature. Stimulus doses tested were 0.01, 0.1, 1, 10, and 100 μg. Male and female antennae were exposed to single 0.2s puffs of odor-bearing air at 5 ml/s by placing the tip of an stimulus cartridge into a hole of a glass tube (0.7 cm ID×20 cm), 10 cm from the outlet and 11 cm away from the antennal preparation. Airflow through the glass tube was humidified and set at 10 ml/s. Puff duration and airflow speeds were maintained by a stimulus flow controller (SFC-2, Syntech, Hilversum, The Netherlands). Stimuli cartridges were selected in random order, beginning with the lowest dosages and working upward to the highest dosages. Each puffed dosage was preceded and followed by a puff from a solvent blank cartridge (filter paper plus solvent). To compensate for possible deterioration of the antennal preparation, a standard control compound, geranyl acetone (1 μg dose) preceded dosages of stimuli compound. EAG amplitudes were normalized according to the responses to geranyl acetone by dividing the amplitude of the EAG generated by the test compounds by that of geranyl acetone. Dose-response series were replicated, using different antennal preparation for each replication, and the EAG responses were expressed as a percentage of the EAG responses to geranyl acetone. Each antennal preparation was tested with freshly prepared sets of stimuli cartridges. Male and female EAG responses were submitted to analysis of variance (ANOVA) using Statistica for Windows software (StatSoft Inc. Tulsa, Okla.))."}, "[1]": {"test": "Effect of light on (3Z)-lactone (isomerization)", "type": "physicochemical", "details": "for isomerization in direct sunlight: quartz cuvette or surface of female cadavers, 2-3 days", "procedure": "To determine whether light would promote the isomerization from (3Z) to (3E)-lactone, 20 mg of (3Z)-lactone was placed neat on a glass slide 10 mm below a UV light (UVG-54 handheld UV-lamp, 254 nm, 6w; UVP Upland Calif., USA) for three d. Subsamples (taken as 1 mg in a pipette) were analyzed by GC/MS at regular intervals and the ratio of (3E):(3Z)-lactone was recorded. In addition, 6 mg of each of (3Z)- and (3E)-lactones (neat) were coated on the quartz surface of a cuvette and exposed outdoors to sunlight at 11° C. mean temperature for 9 d for an average of 5 h a day. Finally, (3Z)-lactone was coated (4 mg) on the dorsal surface of abdomen and […] of 3 female EAB cadavers that were exposed to sunlight for 6 h per day for 1, 2 or 3 d at 10° C. mean temperature; cadavers were stored at 4° C. between sunny days. The lactones were removed from cuvettes and cadavers with hexane washing and analysed by GC/MS to determine the E:Z ratio."}}}
{"molecule": "O=C1C/C=C/CCCCCCCCO1", "note": "[(3E)-lactone, (3E)-dodecen-12-olide]", "values": [{"measurement": "EAG responsiveness of female antennae compared with male antennae", "setting": "A. planipennis antennae", "result": "more responsive"}, {"measurement": "EAG response of female antennae, (3Z)- vs (3E)-lactone", "setting": "A. planipennis antennae", "result": "did not respond differently"}, {"measurement": "isomerization in direct sunlight", "setting": "[1]", "result": "very slow isomerization"}]}
{"molecule": "O=C1C/C=C\\CCCCCCCCO1", "note": "[(3Z)-lactone, (3Z)-dodecen-12-olide]", "values": [{"measurement": "EAG responsiveness of female antennae compared with male antennae", "setting": "A. planipennis antennae", "result": "more responsive"}, {"measurement": "EAG response of female antennae, (3Z)- vs (3E)-lactone", "setting": "A. planipennis antennae", "result": "did not respond differently"}, {"measurement": "effect of storing in a pyrex container (filters out UV-light)", "setting": "[1]", "result": "preventing photoisomerisation"}, {"measurement": "conjugated isomer formed on UV exposure", "setting": "[1]; UV lamp 254 nm, GC/MS", "result": "< 1", "unit": "%"}, {"measurement": "(3E):(3Z) ratio, initial lactone sample", "setting": "[1]; before UV exposure", "result": 0.028}, {"measurement": "(3E):(3Z) ratio after exposure to UV light", "setting": "[1]; neat, UV lamp 254 nm, three d", "result": 0.60}, {"measurement": "stability to isomerization under normal laboratory fluorescent lighting", "setting": "[1]; preliminary studies", "result": "very stable"}, {"measurement": "isomerization in direct sunlight", "setting": "[1]", "result": "very slow isomerization"}]}
